The target of test [1] is T1, Human HDAC9 (Homo sapiens, UniProt Q9UKV0).
T1 construct: Amino acids 604-1066 with C-terminal His tag, MW=50.7 kDa; His (C); purchased BioMol, Hamburg, Germany
The test can be described thus: In vitro HDAC9 inhibition, fluorogenic peptide assay. The format is biochemical. The settings on record: for IC50: read-out: IC50 (nM) of enzyme activity HDAC9. As to the method: (§1) All HDAC assays were performed using acetylated AMC-labeled peptide substrate: • Substrate for isoforms HDAC1, 2, 3, 4, 5, 6, 7, 9, 10, 11 and HeLa nuclear extract assays: Acetylated fluorogenic peptide from p53 residues 379-382 (RHKKAc) (BioMol. Cat. # KI-104). • Substrate for HDAC8 assays: Acetylated fluorogenic peptide from p53 residues 379-382 (RHKAcKAc) (BioMol. Cat. # KI-178).
(§2) Enzymes: • HDAC1 assay: 75 nM Human HDAC1 (GenBank Accession No. NM_004964): Full length with C-terminal GST tag, MW=79.9 kDa, expressed by baculovirus expression system in Sf9 cells (BioMol. Cat. # SE-456). • HDAC2 assay: 5 nM Human HDAC2 (GenBank Accession No. Q92769): Full length with C-terminal His tag, MW=60 kDa, expressed by baculovirus expression system in Sf9 cells (BioMol. Cat. # SE-500). • HDAC3 assay: 2.3 nM Human HDAC3/NcoR2 (GenBank Accession No. NM_003883 for HDAC3, GenBank Accession No.NM_006312 for NcoR2): Complex of human HDAC3, full length with C-terminal His tag, MW=49.7 kDa, and human NCOR2, N-terminal GST tag, MW=39 kDa, co-expressed in baculovirus expression system (BioMol. Cat. # SE-507). • HDAC4 assay: 266 nM Human HDAC4 (GenBank Accession No. NM_006037): Amino acids 627-1085 with N-terminal GST tag, MW=75.2 kDa, expressed in baculovirus expression system (BioMol, Hamburg, Germany). • HDAC5 assay: 588 nM Human HDAC5 (GenBank Accession No. NM_001015053): Full length with Nterminal GST tag, MW=150 kDa, expressed by baculovirus expression system in Sf9 cells (BioMol, Hamburg, Germany). • HDAC6 assay: 13 nM Human HDAC6 (GenBank Accession No. BC069243): Full length with N-terminal GST tag, MW=159 kDa, expressed by baculovirus expression system in Sf9 cells (BioMol. Cat. # SE-508). • HDAC7 assay: 962 nM Human HDAC7 (GenBank Accession No. AY302468): Amino acids 518-end with N-terminal GST tag, MW=78 kDa, expressed in baculovirus expression system (BioMol, Hamburg, Germany). • HDAC8 assay: 119 nM Human HDAC8 (GenBank Accession No. NM018486): Full length, MW=42 kDa, expressed in an E. coli expression system (BioMol. […]
(§3) The reactions were carried out in a 96-well microplate for fluorometry in a 50 μl reaction volume. […] The reaction was allowed to develop for 45 minutes at 30° C. with 5% CO2; then the fluorescent signal was measured with an excitation wavelength at 360 nm and an emission wavelength at 460 nm in a microplate-reading fluorometer (GeminiXS; Molecular Devices, Sunnyvale, Calif.). […] IC50 was calculated by fitting the experimental data to a dose-response curve. […]

For test [2], the target named is T2, Human HDAC4 (Homo sapiens, UniProt P56524).
T2 construct: Amino acids 627-1085 with N-terminal GST tag, MW=75.2 kDa; GST (N); purchased BioMol, Hamburg, Germany
The test is described as follows: In vitro HDAC4 inhibition, fluorogenic peptide assay. The class given is biochemical. The settings on record: for IC50: read-out: IC50 (nM) of enzyme activity HDAC4. On the procedure:
as §1, §2, §3

The subject of test [3] is NCI-N87. The test can be described thus: Cancer cell growth inhibition (CellTiter-Glo), NCI-N87. The format is cell-based, Human. The settings on record: Homo sapiens; Gastric Cancer, NCI-N87, 72 h treatment. As to the method: (§4) Cell culture-based assays were used to evaluate the ability of compounds of the invention to inhibit cancer cell growth.
(§5) Cells were obtained from the American Type Culture Collection (ATCC). Cells were cultured at 37° C. with 5% CO2 in the appropriate growth medium (see table below), and harvested respectively during the logarithmic growth period and counted with hemocytometer. The cell viability was examined by trypan blue exclusion. Cell concentrations were adjusted to 5.56×10^4 cells/ml with respective medium.
(§6) Stock solutions of test compounds and positive drugs Doxorubicin (Zhejiang, Haizheng, China), Cisplatin (Nanjing Zhiyao, China) and Mitomycin (Zhejiang, Haizheng, China) were prepared in dimethyl sulphoxide (DMSO) or PBS at 20 mM.
(§7) In order to determine the IC50 for each compound, experiments were carried out in 96-well plates and the cell lines seeded at a density of 5,000 cells/well. […] All treatments were performed in triplicate. 10 μl of drug solution was added to each well and incubated for 72 hours. At the end of the incubation, 100 μl of the CellTiter-Glo Reagent were added to each well and the contents were mixed for 2 munites on an orbital shaker to induce cell lysis. The plate was incubated at room temperature for 10 minutes to stabilize luminiscent signal, and luminiscent was recorded. […] In order to calculate IC50 values, dose-responsive curves were fitted using nonlinear regression model with a sigmoidal dose response.
Background: Cellular ATP, detected with luciferase, serves as a proxy for viable cell number.

For test [4], the system named is LNCaP. The test is described as follows: Cancer cell growth inhibition (CellTiter-Glo), LNCaP. The class given is cell-based, Human. Conditions: Homo sapiens, Prostate Cancer, 72 h treatment. As to the method: as §4, §5, §6, §7
In test [5] the test system is HepG2. The test is described as follows: Cancer cell growth inhibition (CellTiter-Glo), HepG2. The class given is cell-based. Conditions: Homo sapiens; Liver Cancer, HepG2, 72 h treatment. As to the method:
as §4, §5, §6, §7

Test [6] has as its system MCG803. The test can be described thus: Cancer cell growth inhibition (CellTiter-Glo), MCG803. The class given is cell-based, Human. The settings on record: Homo sapiens; Gastric Cancer, MCG803, 72 h treatment. As to the method:
as §4, §5, §6, §7

Molecules are shown by their SMILES.

T2 sequence (P56524 627-1084 limits assumed): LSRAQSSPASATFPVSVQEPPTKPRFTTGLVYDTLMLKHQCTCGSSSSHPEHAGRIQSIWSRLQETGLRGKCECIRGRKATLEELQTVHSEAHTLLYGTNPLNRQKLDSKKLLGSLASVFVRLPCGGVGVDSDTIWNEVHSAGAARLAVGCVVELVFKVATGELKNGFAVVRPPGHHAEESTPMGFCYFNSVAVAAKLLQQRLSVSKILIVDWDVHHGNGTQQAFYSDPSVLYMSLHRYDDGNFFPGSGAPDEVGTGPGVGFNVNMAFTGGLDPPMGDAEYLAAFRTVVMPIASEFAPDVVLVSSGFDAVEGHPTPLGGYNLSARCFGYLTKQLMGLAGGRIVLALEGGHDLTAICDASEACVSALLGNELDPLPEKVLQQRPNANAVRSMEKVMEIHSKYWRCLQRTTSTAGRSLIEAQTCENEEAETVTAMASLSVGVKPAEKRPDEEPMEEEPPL
T1 sequence (Q9UKV0 604-1066 isoform Q9UKV0-7): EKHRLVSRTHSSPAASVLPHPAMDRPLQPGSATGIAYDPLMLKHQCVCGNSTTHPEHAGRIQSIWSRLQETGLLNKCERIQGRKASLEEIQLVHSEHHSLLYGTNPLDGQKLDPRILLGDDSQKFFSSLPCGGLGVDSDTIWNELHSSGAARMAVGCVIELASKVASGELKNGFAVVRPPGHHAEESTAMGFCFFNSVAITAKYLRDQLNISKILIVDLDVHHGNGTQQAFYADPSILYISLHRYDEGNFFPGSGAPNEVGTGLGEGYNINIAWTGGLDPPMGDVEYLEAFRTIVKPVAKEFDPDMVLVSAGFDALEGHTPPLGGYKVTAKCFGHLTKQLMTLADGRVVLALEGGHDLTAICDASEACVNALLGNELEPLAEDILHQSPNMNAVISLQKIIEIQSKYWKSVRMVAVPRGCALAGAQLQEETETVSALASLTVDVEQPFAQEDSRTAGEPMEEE

In the case of `O=C(CCCCCNC(=O)c1[nH]c(-c2ccc(O)cc2)cc1-c1ccoc1)NO` [Example 5, 3-(3-furyl)-N-(5-(hydroxycarbamoyl)pentyl)-5-(4-hydroxy-phenyl)-1H-pyrrole-2-carboxamide], the IC50 in test [1] stood at 27 nM; in test [2], 143 nM; in test [3], 0.16 µM; in test [4] it was 0.59 µM; in test [5] it was 0.28 µM; in test [6] it was 2.61 µM.
For `COc1ccc(-c2cc(-c3ccccc3)[nH]c2C(=O)NCCCCCC(=O)NO)cc1` [Compound A, N-[6-(hydroxyamino)-6-oxohexyl]-3-(4-methoxyphenyl)-5-phenyl-1H-pyrrole-2-carboxamide, reference compound], the “Selectivity against HDAC6 (IC50 HDACx/IC50 HDAC6) HDAC9” value in test [1] (IC50 HDAC9/IC50 HDAC6) stood at 38.4. The IC50 is 768 nM in test [1] and 1840 nM in test [2]. The “Selectivity against HDAC6 (IC50 HDACx/IC50 HDAC6) HDAC4” value in test [2] (IC50 HDAC4/IC50 HDAC6) turned out to be 91.9.
As for `O=C(CCCCCNC(=O)c1[nH]c(-c2ccc(O)cc2)cc1-c1ccsc1)NO` [Example 6, N-(5-(hydroxycarbamoyl)pentyl)-5-(4-hydroxyphenyl)-3-(3-thienyl)-1H-pyrrole-2-carboxamide], the IC50 worked out at 80 nM in test [1]; 499 nM in test [2]; 0.48 µM in test [3]; 0.8 µM in test [4]; 0.48 µM in test [5]; 2.82 µM in test [6].
For the molecule `O=C(CCCCCNC(=O)c1[nH]c(-c2ccccc2)cc1-c1ccc(O)cc1)NO` [Example 1, N-(6-(hydroxyamino)-6-oxohexyl)-3-(4-hydroxyphenyl)-5-phenyl-1H-pyrrole-2-carboxamide], the 50% inhibitory concentration (IC50) in test [3] was determined as 1 µM; in test [4], 1.11 µM; in test [5] it was 1.1 µM; in test [6] it was 1.11 µM.
On to `O=C(CCCCCNC(=O)c1[nH]c(-c2ccc(O)cc2)cc1-c1ccccc1)NO` [Example 2, N-(6-(hydroxyamino)-6-oxohexyl)-5-(4-hydroxyphenyl)-3-phenyl-1H-pyrrole-2-carboxamide], for which the concentration for half-maximal inhibition (IC50) in test [3] stood at 1.24 µM; in test [4] it was 1.77 µM; in test [5], 0.99 µM; in test [6] it was 3.08 µM.

One may read the IC50 as the midpoint of a concentration-inhibition curve.

Values taken from patent US20150038545A1, “HYDROXYPHENYL PYRROLE COMPOUNDS CONTAINING AN HYDROXAMIC ACID AS HDAC INHIBITORS AND MEDICINAL APPLICATIONS THEREOF” (UNIVERSIDAD DEL PAÍS VASCO, priority 2011, published 2015).
